Assay results from ChEMBL document CHEMBL1201862, “PubChem BioAssay data set” (2004).
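96-well plates; 48 h exposure; 5 concentrations. Endpoints by linear interpolation between flanking doses. Not reached: highest tested concentration assigned. GI50 marks 50% less growth.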 Calls of active or inactive are those of the source. No stated cut-off is given here; in the data, active = GI50 up to about 1.1 µM and inactive = higher.

Columns and labels:
Assay in all cases: NCI tumour cell line growth inhibition, 48 h
[1] = system: RXF 393
[2] = system: BT-549
[3] = system: SF-539
[4] = system: SN12C
[5] = system: HOP-92
[6] = system: LOX IMVI
[7] = system: HOP-62
[8] = system: CAKI-1
[9] = system: OVCAR-8
[10] = system: NCI/ADR-RES
[11] = system: MOLT-4
[12] = system: SW-620
[13] = system: SK-OV-3
[14] = system: T47D
[15] = system: SF-295
[16] = system: COLO 205
[17] = system: NCI-H522
[18] = system: OVCAR-5
[19] = system: MDA-MB-435
[20] = system: Malme-3M
[21] = system: A498
[22] = system: U-251
[23] = system: HCT-116
[24] = system: NCI-H460
[25] = system: RPMI-8226
[26] = system: MDA-MB-231
[27] = system: SNB-75
[28] = system: NCI-H23
[29] = system: UACC-257
[30] = system: SF-268
[31] = system: NCI-H226
[32] = system: KM12
[33] = system: EKVX
[34] = system: SK-MEL-28
[35] = system: TK-10
[36] = system: 786-0
[37] = system: OVCAR-4
[38] = system: ACHN
[39] = system: OVCAR-3
[40] = system: HCT-15
[41] = system: SK-MEL-5
[42] = system: UACC-62
[43] = system: HT-29
[44] = system: CCRF-CEM
[45] = system: DU-145
[46] = system: SR
[47] = system: SK-MEL-2
[48] = system: UO-31
[49] = system: MCF7
[50] = system: HL-60
[51] = system: M14
[52] = system: K562
[53] = system: SNB-19
[54] = system: HCC 2998
[55] = system: Hs-578T
[56] = system: IGROV-1
[57] = system: PC-3

## Cc1cc2nc3c(C#N)c4c(c(Cl)n3c2cc1C)CCC4
[1]
  GI50: 16.6 µM (inactive)
[2]
  GI50: 22.5 µM (inactive)
[3]
  GI50: 25.3 µM (inactive)
[4]
  GI50: 18.6 µM (inactive)
[5]
  GI50: 31.8 µM (inactive)
[6]
  GI50: 18.1 µM (inactive)
[7]
  GI50: > 100 µM (inactive)
[8]
  GI50: 18.5 µM (inactive)
[9]
  GI50: 20.2 µM (inactive)
[10]
  GI50: 18.3 µM (inactive)
[11]
  GI50: 26 µM (inactive)
[12]
  GI50: 19.6 µM (inactive)
[13]
  GI50: > 100 µM (inactive)
[14]
  GI50: 40.7 µM (inactive)
[15]
  GI50: > 100 µM (inactive)
[16]
  GI50: 65.8 µM (inactive)
[17]
  GI50: 17.4 µM (inactive)
[18]
  GI50: 25.1 µM (inactive)
[19]
  GI50: 19.3 µM (inactive)
[20]
  GI50: 52.8 µM (inactive)
[21]
  GI50: > 100 µM (inactive)
[22]
  GI50: 15.1 µM (inactive)
[23]
  GI50: 16.1 µM (inactive)
[24]
  GI50: 37.6 µM (inactive)
[25]
  GI50: 16 µM (inactive)
[26]
  GI50: 15.9 µM (inactive)
[27]
  GI50: > 100 µM (inactive)
[28]
  GI50: 24.1 µM (inactive)
[29]
  GI50: 36.7 µM (inactive)
[30]
  GI50: 23.9 µM (inactive)
[31]
  GI50: 74.1 µM (inactive)
[32]
  GI50: 38.5 µM (inactive)
[33]
  GI50: 61.1 µM (inactive)
[34]
  GI50: 29.2 µM (inactive)
[35]
  GI50: 24.7 µM (inactive)
[36]
  GI50: 16 µM (inactive)
[37]
  GI50: 43 µM (inactive)
[38]
  GI50: 24.6 µM (inactive)
[39]
  GI50: 21.3 µM (inactive)
[40]
  GI50: 17.6 µM
[41]
  GI50: 21.9 µM (inactive)

## CCCCOC(=O)NC(Nc1ccc(S(N)(=O)=O)cc1)(C(F)(F)F)C(F)(F)F
[1]
  GI50: > 100 µM (inactive)
[2]
  GI50: > 100 µM (inactive)
[3]
  GI50: > 100 µM (inactive)
[42]
  GI50: > 100 µM (inactive)
[4]
  GI50: > 100 µM (inactive)
[43]
  GI50: > 100 µM (inactive)
[44]
  GI50: > 100 µM (inactive)
[6]
  GI50: > 100 µM (inactive)
[45]
  GI50: > 100 µM (inactive)
[7]
  GI50: > 100 µM (inactive)
[11]
  GI50: > 100 µM (inactive)
[13]
  GI50: > 100 µM (inactive)
[14]
  GI50: > 100 µM (inactive)
[17]
  GI50: > 100 µM (inactive)
[18]
  GI50: > 100 µM (inactive)
[46]
  GI50: > 100 µM (inactive)
[19]
  GI50: > 100 µM (inactive)
[20]
  GI50: > 100 µM (inactive)
[21]
  GI50: > 100 µM (inactive)
[22]
  GI50: > 100 µM (inactive)
[47]
  GI50: > 100 µM (inactive)
[23]
  GI50: > 100 µM (inactive)
[24]
  GI50: > 100 µM (inactive)
[48]
  GI50: 79.8 µM (inactive)
[25]
  GI50: > 100 µM (inactive)
[26]
  GI50: > 100 µM (inactive)
[27]
  GI50: > 100 µM (inactive)
[28]
  GI50: > 100 µM (inactive)
[49]
  GI50: > 100 µM (inactive)
[50]
  GI50: > 100 µM (inactive)
[29]
  GI50: > 100 µM (inactive)
[30]
  GI50: > 100 µM (inactive)
[51]
  GI50: > 100 µM (inactive)
[31]
  GI50: > 100 µM (inactive)
[32]
  GI50: > 100 µM (inactive)
[33]
  GI50: > 100 µM (inactive)
[34]
  GI50: > 100 µM (inactive)
[35]
  GI50: > 100 µM (inactive)
[38]
  GI50: > 100 µM (inactive)
[39]
  GI50: > 100 µM (inactive)
[40]
  GI50: > 100 µM
[52]
  GI50: > 100 µM (inactive)
[53]
  GI50: > 100 µM (inactive)
[54]
  GI50: > 100 µM (inactive)
[55]
  GI50: > 100 µM (inactive)

## CC(C)(C)c1ccc2c(c1)CNCCNCCNCc1cc(C(C)(C)C)ccc1OCC1(CO2)COc2ccc(C(C)(C)C)cc2CNCCNCCNCc2cc(C(C)(C)C)ccc2OC1
[1]
  GI50: 2.05 µM (inactive)
[2]
  GI50: 1.5 µM (inactive)
[3]
  GI50: 0.375 µM (active)
[42]
  GI50: 1.68 µM (inactive)
[45]
  GI50: 1.49 µM (inactive)
[7]
  GI50: 1.87 µM (inactive)
[8]
  GI50: 1.72 µM (inactive)
[9]
  GI50: 1.76 µM (inactive)
[10]
  GI50: 2.17 µM (inactive)
[12]
  GI50: 0.303 µM (active)
[13]
  GI50: 1.53 µM (inactive)
[17]
  GI50: 0.186 µM (active)
[18]
  GI50: 1.72 µM (inactive)
[20]
  GI50: 1.94 µM (inactive)
[47]
  GI50: 0.914 µM (active)
[24]
  GI50: 0.24 µM (active)
[48]
  GI50: 1.72 µM (inactive)
[26]
  GI50: 1.41 µM (inactive)
[28]
  GI50: 1.52 µM (inactive)
[49]
  GI50: 0.183 µM (active)
[56]
  GI50: 0.418 µM (active)
[29]
  GI50: 1.69 µM (inactive)
[30]
  GI50: 1.37 µM (inactive)
[51]
  GI50: 0.526 µM (active)
[31]
  GI50: 0.718 µM (active)
[32]
  GI50: 0.243 µM (active)
[33]
  GI50: 0.611 µM (active)
[34]
  GI50: 10 µM (inactive)
[35]
  GI50: 1.55 µM (inactive)
[37]
  GI50: 1.58 µM (inactive)
[38]
  GI50: 1.51 µM (inactive)
[39]
  GI50: 1.33 µM (inactive)
[40]
  GI50: 1.51 µM
[57]
  GI50: 0.382 µM (active)
[54]
  GI50: 0.339 µM (active)
[55]
  GI50: 1.44 µM (inactive)
